The numbers were not newly measured in publication PMC3665737 (Biochimica et biophysica acta, 2013), which cites them from elsewhere.

Where a SMILES comes first, the peptide text is derived from it. [ ]: non-standard residue; d: D form. Nle = CCCC[C@H](N)C(=O)O

The subject of data set [1] is PKA (C subunit). The conditions noted are these: ALLN 500 μM, 30 min, 37 °C, ref [15]; for calpain dependence of induced PKA activity (effect of ALLN): oligomycin 5 μM, rotenone 10 μM, CCCP 5 μM, sodium azide 2 mM.
The test system of data set [2] is PKA. The conditions noted are these: peptides 1 - 3, with 14-3-3 domain; ref [14].
Data set [3] concerns regulatory subunits (RI and RII) of PKA. The conditions noted are these: bovine heart mitochondria exposed to digitonin; ref [15].
In data set [4] the test system is mitochondrial calpain. The conditions noted are these: bovine heart mitochondria; substrate N-succinyl-Leu-Tyr-7-amido-4-methylcoumarin; ref [15].
Data set [5] concerns R subunit. The conditions noted are these: isolated R subunit; 10 μM CaCl2, 37 °C, 20 min; ref [15].
Data set [6] concerns C subunit. The conditions noted are these: isolated C subunit; Ca^2+ ≥ 100 μM, 37 °C, 20 min; ref [15].
Data set [7] has as its system R2C2 holoenzyme. The conditions noted are these: 100 μM CaCl2, 0.5, 1.5, and 2.0 h, western blot, ref [15].

`CCCC[C@@H](C=O)NC(=O)[C@H](CC(C)C)NC(=O)[C@H](CC(C)C)NC(C)=O` [ALLN, N-acetyl-Leu-Leu-Nle-al] (Ac-Leu-Leu-[Nle]-aldehyde): the “attenuation of PKA activity induced by rotenone, azide and CCCP” value in data set [1] (western blot) was “attenuated”. In the case of `CCCCc1ccc(Nc2ccc(Nc3ccc(CCCC)cc3S(=O)(=O)[O-])c3c2C(=O)c2ccccc2C3=O)c(S(=O)(=O)[O-])c1.[Na+].[Na+]` [Acid green 27], in data set [2], the “PKA-induced fluorescence increase with quencher” value is listed as “dramatic PKA-induced fluorescence increase”. In the case of `N#CC(C#N)=NNc1cccc(Cl)c1` [CCCP, chlorophenylhydrazone], in data set [1], the “calpain dependence of induced PKA activity (effect of ALLN)” value (“calpain dependence” below) was “attenuated by ALLN”. As to `[N-]=[N+]=[N-].[Na+]` [azide, sodium azide], the “calpain dependence” value in data set [1] is “attenuated by ALLN”. With `C[C@@H]1CC[C@@]2(OC1)O[C@H]1[C@@H](O)[C@H]3[C@@H]4CC[C@H]5C[C@@H](O[C@@H]6O[C@H](CO)[C@H](O[C@@H]7O[C@H](CO)[C@@H](O)[C@H](O[C@@H]8OC[C@@H](O)[C@H](O)[C@H]8O)[C@H]7O[C@@H]7O[C@H](CO)[C@H](O)[C@H](O[C@@H]8O[C@H](CO)[C@@H](O)[C@H](O)[C@H]8O)[C@H]7O)[C@H](O)[C@H]6O)[C@H](O)C[C@]5(C)[C@H]4CC[C@]3(C)[C@H]1[C@@H]2C` [digitonin], in data set [3], the C subunit proteolysis entry is “the catalytic subunit (C) remained intact”. For the same molecule, the “activation of mitochondrial calpain” value in data set [4] is “direct activation of mitochondrial calpain”. Regarding `CC[C@H]1/C=C/C=C/C[C@@H](C)[C@H](O)[C@@](C)(O)C(=O)[C@@H](C)[C@H](O)[C@@H](C)C(=O)[C@@H](C)[C@H](O)[C@@H](C)/C=C/C(=O)O[C@@H]2[C@H](C)[C@H](CC1)O[C@]1(CC[C@H](C)[C@H](C[C@@H](C)O)O1)[C@H]2C` [oligomycin], the “calpain dependence” value in data set [1] is “calpain independent”. For `C=C(C)[C@H]1Cc2c(ccc3c2O[C@@H]2COc4cc(OC)c(OC)cc4[C@@H]2C3=O)O1` [rotenone], the “calpain dependence” value in data set [1] is given as “attenuated by ALLN”.

B1: calpain I: Ca^2+-activated protease (protein, UniProt P07384 2-714; P04632 1-268, looked up)
Calpain-1 catalytic subunit: SEEIITPVYCTGVSAQVQKQRARELGLGRHENAIKYLGQDYEQLRVRCLQSGTLFRDEAFPPVPQSLGYKDLGPNSSKTYGIKWKRPTELLSNPQFIVDGATRTDICQGALGDCWLLAAIASLTLNDTLLHRVVPHGQSFQNGYAGIFHFQLWQFGEWVDVVVDDLLPIKDGKLVFVHSAEGNEFWSALLEKAYAKVNGSYEALSGGSTSEGFEDFTGGVTEWYELRKAPSDLYQIILKALERGSLLGCSIDISSVLDMEAITFKKLVKGHAYSVTGAKQVNYRGQVVSLIRMRNPWGEVEWTGAWSDSSSEWNNVDPYERDQLRVKMEDGEFWMSFRDFMREFTRLEICNLTPDALKSRTIRKWNTTLYEGTWRRGSTAGGCRNYPATFWVNPQFKIRLDETDDPDDYGDRESGCSFVLALMQKHRRRERRFGRDMETIGFAVYEVPPELVGQPAVHLKRDFFLANASRARSEQFINLREVSTRFRLPPGEYVVVPSTFEPNKEGDFVLRFFSEKSAGTVELDDQIQANLPDEQVLSEEEIDENFKALFRQLAGEDMEISVKELRTILNRIISKHKDLRTKGFSLESCRSMVNLMDRDGNGKLGLVEFNILWNRIRNYLSIFRKFDLDKSGSMSAYEMRMAIESAGFKLNKKLYELIITRYSEPDLAVDFDNFVCCLVRLETMFRFFKTLDTDLDGVVTFDLFKWLQLTMFA
Calpain small subunit 1: MFLVNSFLKGGGGGGGGGGGLGGGLGNVLGGLISGAGGGGGGGGGGGGGGGGGGGGTAMRILGGVISAISEAAAQYNPEPPPPRTHYSNIEANESEEVRQFRRLFAQLAGDDMEVSATELMNILNKVVTRHPDLKTDGFGIDTCRSMVAVMDSDTTGKLGFEEFKYLWNNIKRWQAIYKQFDTDRSGTICSSELPGAFEAAGFHLNEHLYNMIIRRYSDESGNMDFDNFISCLVRLDAMFRAFKSLDKDGTGQIQVNIQEWLQLTMYS
Regarding B1, the R subunit digestion result in data set [5] is reported as “selectively digested”. The C subunit digestion result in data set [6] was “partial proteolysis”. Further, the “subunit proteolysis in holoenzyme” value in data set [7] was “proteolysis of the R subunit, but not the C subunit”.
